Results taken from patent US20240041922A1, “METHODS AND COMPOSITIONS” (Monash University, priority 2020, published 2024).
Entries after “also recorded” stand apart in the source; their conditions may differ.

Assays:
C2C12 myoblasts = assay: C2C12 myoblast proliferation (EdU incorporation); type: cell-based, mouse; settings: for effect on NAMPT-induced myoblast proliferation: co-administration with NAMPT, 6 h
Description: Larvae: Labelling and detection was carried out as previously described (Nguyen, P. D. et al. Muscle stem cells undergo extensive clonal drift during tissue growth via Meox1-mediated induction of G2 cell-cycle arrest. […] Cell culture: Cells were incubated for 1 h in media supplemented with 10 μM EdU. […] Cells were processed using the Click-iTTM EdU Alexa FluroTM 647 imaging Kit (Thermo Fisher) following the manufacturer's protocol. The mouse muscle cell line […]. Serial passaging and differentiation of myogenic cells isolated from dystrophic mouse muscle. Nature 270, 725 (1977) were cultured in growth media (Dulbecco's Modified Eagle Medium (4.5 g/l D-Glucose, No L Glutamine, No Sodium Pyruvate (Gibco))+20% Fetal Bovine Solution-One Shot (Gibco)+1% Glut Max 100x (Gibco)). Cells were maintained at 37° C., 5% CO2. Cells at 70% confluence, passage 8 were extracted from T75 flasks with 0.025% Tryspin EDTA (Gibco), neutralised in growth media, spun at 180×g for 5 min to pellet cells. The cells were then resuspended in 10 ml of fresh growth media. 500 μl of cells were plated on a 8-well on cover glass II (Sarstedt) chamber slide at a density of 1×10^3 cells/ml. Cells were left 4 h at 37° C. to re-attach. For drug treatments, the media were supplemented with appropriate doses and cultured for 6 h.

PAX7+ satellite cells = assay: Primary mouse myoblast mono- and co-cultures, PAX7+ satellite cell proliferation (EdU); type: cell-based; settings: 100 nM inhibitor; for effect on macrophage-stimulated satellite cell proliferation: MB+macrophage co-culture; for effect on NAMPT-stimulated satellite cell proliferation: with hrNAMPT
Description: Larvae: Labelling and detection was carried out as previously described (Nguyen, P. D. et al. Muscle stem cells undergo extensive clonal drift during tissue growth via Meox1-mediated induction of G2 cell-cycle arrest. […] Cell culture: Cells were incubated for 1 h in media supplemented with 10 μM EdU. […] Cells were processed using the Click-iTTM EdU Alexa FluroTM 647 imaging Kit (Thermo Fisher) following the manufacturer's protocol. For isolation of primary mouse myoblasts, limb skeletal muscle from E17.5 C57/BL6J mice were minced and digested in 0.125% Trypsin at 37° C. for 20 min. […] Myoblasts were again depleted for fibroblasts prior to co-culturing on gelatin-coated 48 well plates in DMEM+20% FBS+10% L929-conditioned medium. 100,000 myoblasts were plated with either 7,500 MafB/c-Maf deficient (Maf-DKO) macrophages (Aziz, A., Soucie, E., Sarrazin, […]. MafB/c-Maf deficiency enables self-renewal of differentiated functional macrophages. […] For drug treatments, the media were supplemented with appropriate doses and cultured for 24 h.

[1] = test system: wound-resident muscle stem cells; assay: Larval zebrafish needle stab muscle injury, wound site proliferation (EdU); type: in vivo; settings: needle stab injury, agent alone
Description: 4dpf larvae were anaesthetized in 0.01% tricaine (MS-222) (Sigma-Aldrich) in Ringer's solution. Mechanical injures were targeted either to the dorsal or ventral myotome above the cloaca when the larvae is oriented dorsal to the top, anterior to the left. Needle-stick injury was carried out as previously described (Gurevich, D. B. el al. Asymmetric division of clonal muscle stem cells co-ordinate muscle regeneration in vivo. Science 353 6295 aad9969 (2016)). Briefly, the myotome was subjected to a single 30-gauge needle puncture that generates an extensive injury with many damaged muscle fibres. For laser-induced injury, anaesthetised larvae were mounted in a thin layer of 1% low-melt agarose in Ringer's solution. Injuries were carried out using a UV-nitrogen laser pulsed through a coumarin 440 nm dye cell coupled to a Zeiss Axioplan microscope (MicroPoint Laser System, Andor Technology). On average a laser injury required pulses for 5-10 sec from laser beams focused through a 40× water immersion objective. For time-lapse analysis of the immediate response to injury, muscle fibre ablations were achieved using a SIM scanner (Olympus) at 790 nm and 200 msec dwell time at 100% laser power on an Olympus FVMPE-RS upright multi-photon microscope equipped with a 25×/1.05 water immersion objective. Injury-responding macrophages were tracked using the manual tracking plugin in Fiji.
Cell ablation was carried out as previously described (Pisharath, H. & Parsons, M. J. in Zebrafish 133-143 (Springer, 2009)) with minor modifications. Larvae at the appropriate stage were incubated in 5-10 mM metronidazole (Mtz) (Sigma-Aldrich) in Ringer's solution and daily refreshed until experimental end point. Drug treatments were carried out by incubating 4 dpf needle stick injured larvae in 5 and 10 μM cenicriviroc (CVC) (Med Chem Express) and 5 and 10 μM maraviroc (MVC) (Med Chem Express) in Ringer's solution immediately post injury and refreshed daily.
The effect of drug treatment on laser ablation muscle injury was assayed by treating larvae with 5 μM CVC for 2 h prior to injury and with larvae being maintained in the drug until experimental end point. […] Chemokine supplementation experiments were carried out in plasticware coated with 0.1% bovine serum albumin (BSA) overnight (rinsed in Ringer's solution prior to use) to minimise protein adsorption. Larvae were treated with 57 nM recombinant human visfatin (hrNAMPT(1)) (PeproTech), 57 nM recombinant murine CCL8/MCP-2 (mrCCL8) (PeproTech) and combinations with Mtz and CVC.
Larvae: Labelling and detection was carried out as previously described (Nguyen, P. D. et al. Muscle stem cells undergo extensive clonal drift during tissue growth via Meox1-mediated induction of G2 cell-cycle arrest. Cell Stem Cell 21, 107-119. e106 (2017))^55 with minor alteration. 6 dpf/2 dpi larvae were pulsed with 2.5 nM EdU (Thermo Fisher) for 1h and chased for a further 1.5 h prior to fixation. Cell culture: Cells were incubated for 1 h in media supplemented with 10 μM EdU. Following Edu pulse, C2C12 cells were fixed immediately, while primary mouse myoblast co-cultures were rinsed in PBS, replaced with media and incubated for a further 2 h following which the cells were fixed. Cells were processed using the Click-iT™ EdU Alexa Fluro™ 647 imaging Kit (Thermo Fisher) following the manufacturer's protocol.

[2] = test system: larval zebrafish skeletal muscle; assay: Larval zebrafish muscle regeneration by birefringence imaging; type: in vivo; settings: larvae soaked in drug after needle stab injury
Description: 4dpf larvae were anaesthetized in 0.01% tricaine (MS-222) (Sigma-Aldrich) in Ringer's solution. Mechanical injures were targeted either to the dorsal or ventral myotome above the cloaca when the larvae is oriented dorsal to the top, anterior to the left. Needle-stick injury was carried out as previously described (Gurevich, D. B. el al. Asymmetric division of clonal muscle stem cells co-ordinate muscle regeneration in vivo. Science 353 6295 aad9969 (2016)). Briefly, the myotome was subjected to a single 30-gauge needle puncture that generates an extensive injury with many damaged muscle fibres. […]
Fixed and Immunostained cell culture samples were imaged on a Leica DMi8 inverted widefield microscope with a 10× objective. Birefringence imaging was carried out as previously described (Berger, J., Sztal, T. & Currie, P. D. Quantification of birefringence readily measures the level of muscle damage in zebrafish. Biochemical and biophysical research communications 423, 785-788 (2012)), using a Leica DM IRB upright microscope integrated with the Abrio software (CRI Hinds instruments) using a 5× objective. Images were analysed using the software Fiji^52, whereby the mean grey value of the injury site birefringence is normalised to the region before and after it to calculate relative birefringence of the wound site. […]

Nampt = assay: NAD+/NADH levels after Nampt enzymatic inhibition; type: in vivo, zebrafish; settings: 10 μM

Compound | effect on NAMPT-induced myoblast proliferation (C2C12 myoblasts) | effect on macrophage-stimulated satellite cell proliferation (PAX7+ satellite cells) | effect on NAMPT-stimulated satellite cell proliferation (PAX7+ satellite cells) | wound site muscle stem cell proliferation [1] | muscle regeneration (birefringence) [2] | myoblast proliferation, factor added alone (C2C12 myoblasts; 6 h in growth media) | larval NAD+/NADH levels (Nampt)
CCCCOCCOc1ccc(-c2ccc3c(c2)/C=C(/C(=O)Nc2ccc([S@@+]([O-])Cc4cncn4CCC)cc2)CCCN3CC(C)C)cc1 [CVC, cenicriviroc, reference compound] | abolishes NAMPT's pro-proliferative response; also recorded: proliferative response was blocked | a response that is inhibited; also recorded: reduced satellite cell proliferation in MB+MΦ culture conditions to levels evident in MB alone or MB+3T3 cultures | pro-proliferative response is abolished; also recorded: an effect that was abolished | proliferation is inhibited by CVC addition; also recorded: resulted in a proliferation deficit; also recorded: reduction in the proliferation of pax3a^+ myogenic stem cells; also recorded: reduction in the proliferation of par3a^+ myogenic stem cells | marked regeneration deficit; also recorded: highly significant regeneration deficit | – | –
N#CN=C(NCCCCCCOc1ccc(Cl)cc1)Nc1ccncc1 [GMX1778, reference compound] | does not impact its effect on myoblast proliferation; also recorded: did not affect the increased myoblast proliferation | – | – | had no effect on muscle stem cell proliferation in the injury zone; also recorded: did not alter muscle stem cell proliferation | – | no negative effect on the basal level of C2C12 proliferation | severe reduction in larval NAD^+/NADH levels
maraviroc [MVC, reference compound] | abolishes NAMPT's pro-proliferative response; also recorded: proliferative response was blocked | pro-proliferative response is abolished | an effect that was abolished | reduction in the proliferation of pax3a^+ myogenic stem cells; also recorded: reduction in the proliferation of par3a^+ myogenic stem cells | marked regeneration deficit; also recorded: highly significant regeneration deficit | – | –
